Results from patent US11324768B2, “Applications of triacetyl-3-hydroxyl phenyl adenosine in treating vascular inflammations or improving vascular endothelium functions” (priority 2016, dated 2022).

How the values were obtained:
thoracic aorta = experiment: Endothelial function of thoracic aorta in ApoE−/− mice (vascular ring, Ach / SNP relaxation); format: in vivo
Protocol: (§1) After 1 week of adaptive feeding, the animals were randomly divided into 7 groups according to body weight: normal control group, model control group A769662 (30 mg/kg) administration group, metformin (260 mg/kg) administration group, IMM-H007 low, medium, and high administration groups (50, 100, 200 mg/kg), 8 in each group, and were given a high-fat diet (78.6% basal diet, 10% lard, 1.0% cholesterol, 10% egg yolk powder, and 0.4% bile salt), and simultaneously administered intragastrically at a dose of 0.1 ml/10 g body weight, and were continuously administered and fed for 8 weeks to establish an atherosclerosis model.
The mice were anesthetized. The thoracic aorta was quickly taken, after carefully stripping the surrounding tissue, was cut into a vascular ring with a length of about 3 mm. The vascular ring was carefully hung on a tonotransducer, given an initial tension of 0.5 g and equilibrated for 90 minutes or more. During the equilibration process, the fluid was replaced every 20 minutes, aeration was maintained and the temperature was maintained at 37° C. The vascular ring was equilibrated for about 1 hour and stimulated twice with saturated KCl (60 mM) to detect whether the blood vessel was active. After vasoconstriction was stabilized, KCl was washed away immediately. After the last replacement of the fluid, the vascular ring was equilibrated for 20 minutes, given phenylephrine 1 μM to stimulate vasoconstriction, and after vasoconstriction was stabilized, it was cumulatively administered with acetylcholine (Ach, 1×10^−10 to […]) and sodium nitroprusside (SNP, 10^−10 to 10^−4 M) to record the vasodilation curve. Vasodilation rate=[PE-induced vascular tone (g)-vascular tension after addition of ACh (g)][…][PE contraction-induced tension (g)-basal vascular tone (g)]×100%.

AMPK-eNOS pathway = experiment: Mechanism of improving endothelial function (Western Blotting, total nitric oxide synthase activity in serum); format: in vivo; conditions: ApoE−/− mice
Protocol: as §1
The expression levels of AMPK, pAMPK, peNOS, eNOS, Caveolin-1 proteins were analyzed and measured by Western Blotting to determine the total nitric oxide synthase activity in serum.

CC(=O)OCC1OC(n2cnc3c(Nc4cccc(O)c4)ncnc32)C(OC(C)=O)C1OC(C)=O (stereo not drawn) [IMM-H007, 2′,3,′ 5′-triacetyl-N^6(3-hydroxyphenyl)adenosine]
sodium nitroprusside endothelium-independent relaxation of aortic vessel (thoracic aorta; 50 mg/kg, 1 × 10^−4 M SNP): 97.8 ± 4.9%
acetylcholine endothelium-dependent relaxation of aortic vessel (thoracic aorta; 50 mg/kg, 1 × 10^−5 M Ach): 91.0 ± 2.3 %
sodium nitroprusside endothelium-independent relaxation of aortic vessel (thoracic aorta; 50 mg/kg, 1 × 10^−5 M SNP): 89.4 ± 6.8%
acetylcholine endothelium-dependent relaxation of aortic vessel (thoracic aorta; 50 mg/kg, 1 × 10^−6 M Ach): 67.5 ± 11.0 %
sodium nitroprusside endothelium-independent relaxation of aortic vessel (thoracic aorta; 50 mg/kg, 1 × 10^−6 M SNP): 87.2 ± 10.1%
acetylcholine endothelium-dependent relaxation of aortic vessel (thoracic aorta; 50 mg/kg, 1 × 10^−7 M Ach): 54.1 ± 18.8 %
sodium nitroprusside endothelium-independent relaxation of aortic vessel (thoracic aorta; 50 mg/kg, 1 × 10^−7 M SNP): 68.3 ± 20.5%
acetylcholine endothelium-dependent relaxation of aortic vessel (thoracic aorta; 50 mg/kg, 1 × 10^−8 M Ach): 39.2 ± 14.0%
sodium nitroprusside endothelium-independent relaxation of aortic vessel (thoracic aorta; 50 mg/kg, 1 × 10^−8 M SNP): 58.4 ± 13.8%
acetylcholine endothelium-dependent relaxation of aortic vessel (thoracic aorta; 50 mg/kg, 1 × 10^−9 M Ach): 29.3 ± 11.2%
sodium nitroprusside endothelium-independent relaxation of aortic vessel (thoracic aorta; 50 mg/kg, 1 × 10^−9 M SNP): 43.1 ± 24.6%
acetylcholine endothelium-dependent relaxation of aortic vessel (thoracic aorta; 50 mg/kg, 1 × 10^−10 M Ach): 11.6 ± 7.0%
sodium nitroprusside endothelium-independent relaxation of aortic vessel (thoracic aorta; 50 mg/kg, 1 × 10^−10 M SNP): 18.0 ± 16.3%
acetylcholine endothelium-dependent relaxation of aortic caused by high fat (thoracic aorta; 50 mg/kg, compared with the model control group): significantly improve
sodium nitroprusside endothelium-independent relaxation of aortic vessel (thoracic aorta; 200 mg/kg, 1 × 10^−4 M SNP): 97.9 ± 10.8%
acetylcholine endothelium-dependent relaxation of aortic vessel (thoracic aorta; 200 mg/kg, 1 × 10^−5 M Ach): 97.8 ± 8.2 %
sodium nitroprusside endothelium-independent relaxation of aortic vessel (thoracic aorta; 200 mg/kg, 1 × 10^−5 M SNP): 95.4 ± 8.5%
acetylcholine endothelium-dependent relaxation of aortic vessel (thoracic aorta; 200 mg/kg, 1 × 10^−6 M Ach): 87.4 ± 10.9 %
sodium nitroprusside endothelium-independent relaxation of aortic vessel (thoracic aorta; 200 mg/kg, 1 × 10^−6 M SNP): 94.1 ± 20.6%
acetylcholine endothelium-dependent relaxation of aortic vessel (thoracic aorta; 200 mg/kg, 1 × 10^−7 M Ach): 64.2 ± 17.7 %
sodium nitroprusside endothelium-independent relaxation of aortic vessel (thoracic aorta; 200 mg/kg, 1 × 10^−7 M SNP): 73.6 ± 23.3%
acetylcholine endothelium-dependent relaxation of aortic vessel (thoracic aorta; 200 mg/kg, 1 × 10^−8 M Ach): 47.6 ± 22.5%
sodium nitroprusside endothelium-independent relaxation of aortic vessel (thoracic aorta; 200 mg/kg, 1 × 10^−8 M SNP): 62.3 ± 22.7%
acetylcholine endothelium-dependent relaxation of aortic vessel (thoracic aorta; 200 mg/kg, 1 × 10^−9 M Ach): 31.4 ± 18.5%
sodium nitroprusside endothelium-independent relaxation of aortic vessel (thoracic aorta; 200 mg/kg, 1 × 10^−9 M SNP): 30.5 ± 20.8%
acetylcholine endothelium-dependent relaxation of aortic vessel (thoracic aorta; 200 mg/kg, 1 × 10^−10 M Ach): 9.4 ± 3.9%
sodium nitroprusside endothelium-independent relaxation of aortic vessel (thoracic aorta; 200 mg/kg, 1 × 10^−10 M SNP): 12.4 ± 8.4%
NO production (AMPK-eNOS pathway): increases
AMPK-eNOS pathway (AMPK-eNOS pathway; Western Blotting): activation
activity of nitric oxide synthase (AMPK-eNOS pathway; serum): improves
